Assay results published in patent publication US7091207B2, “Method of treating myocardial infarction with PDE-5 inhibitors” (Virginia Commonwealth University, priority 2002, dated 2006).
Marks after values point to notes of the source that are not given here.

What was measured:
[1] = Systemic hemodynamics (blood pressure, heart rate, rate pressure product) in rabbits; format: in vivo, rabbit
[2] = system: doxorubicin-induced cardiotoxicity in mice; experiment: Chronic mouse model of doxorubicin-induced cardiotoxicity; format: in vivo; conditions: DOX-treated mice; sildenafil citrate 0.7 mg/kg ip
Method: Mice are treated with doxorubicin in the presence or absence of clinically relevant doses of sildenafil citrate, and the left ventricular systolic function is correlateed using 2-dimensional (2D) contrast echocardiography. The actions of dosing sildenafil citrate 24 hours prior to each dose of doxorubicin (Total of 3 doses) versus dosing sildenafil citrate daily for 28 days is tested. Histological examination is performed to assess the ultrastructural alterations including nuclear condensation with coarse chromatin clumping, sarcoplasmic reticulum vacuolization, and mitochondrial fine structure disruption which are known to occur widely in doxorubicin-treated cardiomyocytes. […] The role of sildenafil in attenuation of DOX-induced apoptosis and attenuation of mitochondrial transition pore opening is assessed. The contribution of […] channel opening in rescuing DOX-induced cell death in sildenafil treated mice is determined by using 5-hydroxydecanoate, a selective blocker of the […] channel.
Materials and methods. […] Weight of all animals is measured weekly and gross heart weight is measured prior to freezing in liquid nitrogen. […] Specifically, nuclear chromatinmargination, mitochondrial swelling, cristae disappearance/matrix clearing, presence or absence of contractile apparatus disarray, and sarcoplasmic reticulum vacuolization is measured.

[3] = oral 1.4 mg/kg, after 30 minutes
[4] = oral sildenafil citrate 1.4 mg/kg, Acute, 30-min Ischemia
[5] = oral sildenafil citrate 1.4 mg/kg, Acute, 60-min Reperfusion
[6] = oral sildenafil citrate 1.4 mg/kg, Acute, 80-min Reperfusion
[7] = oral sildenafil citrate 1.4 mg/kg, Acute, 120-min Reperfusion
[8] = oral sildenafil citrate 1.4 mg/kg, Acute, Baseline
[9] = oral sildenafil citrate 1.4 mg/kg, Acute, Preischemia
[10] = oral sildenafil citrate 1.4 mg/kg, Delayed, 30-min Ischemia
[11] = oral sildenafil citrate 1.4 mg/kg, Delayed, 60-min Reperfusion
[12] = oral sildenafil citrate 1.4 mg/kg, Delayed, 80-min Reperfusion
[13] = oral sildenafil citrate 1.4 mg/kg, Delayed, 120-min Reperfusion
[14] = oral sildenafil citrate 1.4 mg/kg, Delayed, Baseline
[15] = oral sildenafil citrate 1.4 mg/kg, Delayed, Preischemia
[16] = sildenafil 0.7 mg/kg IV, acute phase, 30-min Ischemia
[17] = sildenafil 0.7 mg/kg IV, acute phase, Baseline
[18] = sildenafil 0.7 mg/kg IV, acute phase, Preischemia
[19] = sildenafil 0.7 mg/kg IV, acute phase, Reperfusion (60 min)
[20] = sildenafil 0.7 mg/kg IV, acute phase, Reperfusion (120 min)
[21] = sildenafil 0.7 mg/kg IV, acute phase, Reperfusion (180 min)
[22] = sildenafil 0.7 mg/kg IV, delayed phase, 30-min Ischemia
[23] = sildenafil 0.7 mg/kg IV, delayed phase, Baseline
[24] = sildenafil 0.7 mg/kg IV, delayed phase, Preischemia
[25] = sildenafil 0.7 mg/kg IV, delayed phase, Reperfusion (60 min)
[26] = sildenafil 0.7 mg/kg IV, delayed phase, Reperfusion (120 min)
[27] = sildenafil 0.7 mg/kg IV, delayed phase, Reperfusion (180 min)
[28] = sildenafil citrate 0.7 mg/kg intravenous, within 2 minutes

CCCc1nn(C)c2c(=O)[nH]c(-c3cc(S(=O)(=O)N4CCN(C)CC4)ccc3OCC)nc12 [sildenafil]
changes in heart rate ([1]; 0.7 mg/kg intravenous): No significant changes in heart rate
time until systemic hemodynamics returned to nearly baseline levels ([1]; 0.7 mg/kg intravenous): ≤ 5 min
changes in heart rate ([1]; oral 1.4 mg/kg): No changes in heart rate
decrease in diastolic pressure [1, 3]: ~12.5%
decrease in mean arterial pressure [1, 3]: ~10.3%
decrease in systolic pressure [1, 3]: approximately 9.2%
hypotensive response ([1]; oral 1.4 mg/kg, at 60 minutes): remained significant
HR [1, 4]: 216 ± 18 beats/min
MAP [1, 4]: 96 ± 6 mmHg
RPP (systolic arterial pressure x HR) [1, 4]: 23137 ± 1617
HR [1, 5]: 205 ± 14 beats/min
MAP [1, 5]: 89 ± 0.4 mmHg
RPP (systolic arterial pressure x HR) [1, 5]: 21647 ± 2274
HR [1, 6]: 187 ± 9 beats/min
MAP [1, 6]: 81 ± 5c mmHg
RPP (systolic arterial pressure x HR) [1, 6]: 18555 ± 1336
HR [1, 7]: 187 ± 9 beats/min
MAP [1, 7]: 82 ± 5c mmHg
RPP (systolic arterial pressure x HR) [1, 7]: 17738 ± 860c
HR [1, 8]: 216 ± 5 beats/min
MAP [1, 8]: 100 ± 2a mmHg
RPP (systolic arterial pressure x HR) [1, 8]: 24859 ± 239
HR [1, 9]: 210 ± 20 beats/min
MAP [1, 9]: 95 ± 3 mmHg
RPP (systolic arterial pressure x HR) [1, 9]: 22848 ± 2027
HR [1, 10]: 190 ± 18 beats/min
MAP [1, 10]: 104 ± 5 mmHg
RPP (systolic arterial pressure x HR) [1, 10]: 22089 ± 2288
HR [1, 11]: 185 ± 14 beats/min
MAP [1, 11]: 103 ± 8 mmHg
RPP (systolic arterial pressure x HR) [1, 11]: 20955 ± 1469
HR [1, 12]: 173 ± 16 beats/min
MAP [1, 12]: 94 ± 8 mmHg
RPP (systolic arterial pressure x HR) [1, 12]: 18838 ± 1913
HR [1, 13]: 171 ± 15 beats/min
MAP [1, 13]: 94 ± 8 mmHg
RPP (systolic arterial pressure x HR) [1, 13]: 17692 ± 978
HR [1, 14]: 187 ± 15 beats/min
MAP [1, 14]: 109 ± 3 mmHg
RPP (systolic arterial pressure x HR) [1, 14]: 22626 ± 2173
HR [1, 15]: 193 ± 7 beats/min
MAP [1, 15]: 99 ± 3 mmHg
RPP (systolic arterial pressure x HR) [1, 15]: 21938 ± 989
HR [1, 16]: 208 ± 11 beats/min
MAP [1, 16]: 76 ± 7 mmHg
RPP (systolic arterial pressure × HR) [1, 16]: 17,728 ± 1441
HR [1, 17]: 247 ± 20 beats/min
MAP [1, 17]: 77 ± 4^f mmHg
RPP (systolic arterial pressure × HR) [1, 17]: 21,988 ± 2129
HR [1, 18]: 204 ± 8 beats/min
MAP [1, 18]: 81 ± 6^f mmHg
RPP (systolic arterial pressure × HR) [1, 18]: 18,132 ± 999
HR [1, 19]: 201 ± 14 beats/min
MAP [1, 19]: 76 ± 5^f mmHg
RPP (systolic arterial pressure × HR) [1, 19]: 16748 ± 1425
HR [1, 20]: 177 ± 11^a beats/min
MAP [1, 20]: 74 ± 5^f mmHg
RPP (systolic arterial pressure × HR) [1, 20]: 14909 ± 1289^a
HR [1, 21]: 158 ± 12^a beats/min
MAP [1, 21]: 73 ± 5^f mmHg
RPP (systolic arterial pressure × HR) [1, 21]: 12,967 ± 1115^a
HR [1, 22]: 189 ± 8^a beats/min
MAP [1, 22]: 73 ± 9 mmHg
RPP (systolic arterial pressure × HR) [1, 22]: 15,395 ± 1784
HR [1, 23]: 229 ± 14 beats/min
MAP [1, 23]: 76 ± 5^f mmHg
RPP (systolic arterial pressure × HR) [1, 23]: 19,692 ± 1528
HR [1, 24]: 215 ± 8 beats/min
MAP [1, 24]: 71 ± 5^f mmHg
RPP (systolic arterial pressure × HR) [1, 24]: 17,764 ± 1174
HR [1, 25]: 179 ± 8^a,b beats/min
MAP [1, 25]: 74 ± 9^f mmHg
RPP (systolic arterial pressure × HR) [1, 25]: 15,086 ± 1989
HR [1, 26]: 170 ± 8^a,b beats/min
MAP [1, 26]: 73 ± 5^f mmHg
RPP (systolic arterial pressure × HR) [1, 26]: 13,477 ± 1285^a
HR [1, 27]: 164 ± 11^a,b beats/min
MAP [1, 27]: 68 ± 3^f mmHg
RPP (systolic arterial pressure × HR) [1, 27]: 12,196 ± 1088^a
decline in diastolic pressure [1, 28]: 47.3%
decline in mean arterial pressure [1, 28]: 38.8%
decline in systolic pressure [1, 28]: 24.5%
LV function [2]: improves LV function
ultrastructural damage to the heart [2]: reduces ultrastructural damage to the heart
